According to patent US20230414601A1, “INJECTABLE COMPOSITION CONTAINING CASPASE INHIBITOR, AND PREPARATION METHOD THEREFOR” (LG CHEM, LTD., priority 2020, published 2023):

Assay: Test for API loss according to continuous phase
Assay type: physicochemical
Method: A dispersed phase was prepared by dissolving a certain amount of the Test Compound (API) in an organic solvent (dichloromethane, DCM), and 1 mL of the prepared dispersed phase was added to each continuous phase and then stirred to measure the amount of the API extracted into the continuous phase.

Amount of API extracted into continuous phase (%) (continuous phase 0.01N HCl): 4.0%
Amount of API extracted into continuous phase (%) (continuous phase DW, dispersed phase API in DCM, 1 mL): 3.7%
Amount of API extracted into continuous phase (%) (continuous phase PVA 1 wt %): 24.9%
Amount of API extracted into continuous phase (%) (continuous phase PVA 1 wt % + 1N HCl): 13.1%
Amount of API extracted into continuous phase (%) (continuous phase PVA 5 wt %): 59.3%
Compound: CC(C)[C@@]1(C(=O)N[C@H]2CC(=O)O[C@]2(O)CF)CC(c2nccc3ccccc23)=NO1 [Test Compound, (R)-N-((2S,3S)-2-(fluoromethyl)-2-hydroxy-5-oxotetrahydrofuran-3-yl)-5-isopropyl-3-(isoquinolin-1-yl)-4,5-dihydroisoxazole-5-carboxamide]
